Data set [1] in a line: Acute toxicity (DL50) i.v. in rat. The format is in vivo. The note with it: in vivo, iv, dose causing death in 50% of the animals. The protocol: In this table (n. 1) there are recorded the compounds described in the examples with their relative serial numbers, the acute toxicity, the antispastic activity observed in two experimental tests, one "in vivo" and one "in vitro". There are moreover recorded two therapeutic indices which take account of the toxicity of these compounds in relation to their in vivo and in vitro activity. More precisely:
A. DL50 which, as is known, is the quantity of the substance expressed in mg/kg of animal weight, capable of causing death in 50% of the animals treated.

Data set [2] relates to intestinal transit of the charcoal. The experiment in a line: Vegetable carbon (charcoal) intestinal transit test in vivo. On the set-up: species or system rat. The note with it: i.v., rat, charcoal test, 2 hours; for ED50: Rattus norvegicus, iv, 2 h, read-out: Antisp. activity in transit test: ED50. The protocol:
B. The vegetable carbon method in vivo (charcoal method) which consists of administering by oral means to rats, which have fasted for 24 hours, 0.3ml/per rate of a mixture consisting of: 10g of charcoal and 5 g of gum arabic suspended in a volume of 100 cc of H2 O as well as at the same time the substance being studied, accordingly as desired, generally i.v., s.c., oral. After two hours the animals are killed and those are taken to be negative in which the charcoal has reached the first portion of the colon and the others positive, in the sense that the substance administered has slowed down the intestinal transit of the charcoal.
In effect the animals treated with a physiological solution (checks) are all negative after two hours.
D. I.T.1 is the therapeutic index under the profile of the antispastic activity in vivo, and it is obtained by recording the DL50 (column 2) with the ED50 of the charcoal test (column 3).

For data set [3], the system named is ileum of a cavy (BaCl2 spasm). The data set is described as follows: Antispastic activity in vitro, Magnus method, cavy ileum stimulated with BaCl2. The note with it: ratio to papaverine = 1; Table 1; 37°. Type of data set: cell-based. The protocol: C. The method in vitro is that of Magnus, with the ileum of the cavy, and is in common use for all evaluations. It consists of extracting the ileum from the cavy and placing it in a receptacle which contains nutritive liquid, suitably oxygenated, and registering the movements of the organ which remains alive for several hours if maintained at a temperature of 37°. According to the traditional method followed by us, BaCl2 is put into the bath as a spasmisant: the reaction is a violent contraction of the organ. This contraction can be prevented by adding beforehand pharmaceuticals which inhibit spasms, and in this case our compounds.
The values recorded are expressed as relation between papaverine and the ED50 of our compounds. (As is known, the ED50 is the dose which results in a 50% reduction in spastic contraction).
E. I.T.2 is the therapeutic index under the profile of the antispastic activity in vitro and is given by the product between the in vitro antispastic activity index (column 4) and the corresponding DL50 (column 2).

As usually defined, the LD50 is the dose at which mortality reaches 50%. High values mean lower toxicity, low ones greater toxicity. The term ED50 denotes the dose at which the effect has come halfway, by size or by number of responders. For the molecule `CCCN(CCC)C(=O)C(Cc1ccc(OCCN(C)C)cc1)NC(=O)c1ccccc1` (racemic) [CR 592, O-(2dimethylamino-ethyl)-N-benzol-DL-Tyrosil-di-n-propilamide], the 50% lethal dose (LD50) in data set [1] stood at 58.1 mg/kg. In data set [2], the 50% effective dose (ED50) is 47.5 mg/kg. The “Antisp. activity in vitro on the ileum of a cavy by Stim. BaCl2: ED50 pap./ED50 CR” value (“Antisp. activity in vitro on the ileum” for short) in data set [3] is listed as 0.25.
`CCNC(=O)C(Cc1ccc(OCCN(C)C)cc1)NC(=O)c1ccccc1` (racemic) [CR 608, O-(2-dimethylamino-ethyl)-N-benzoyl-DL-tyrosil-ethylamide] displayed an LD50 in data set [1] of 162 mg/kg. Moreover, the ED50 in data set [2] turned out to be 104 mg/kg.
Turning to `CCCN(CCC)C(=O)C(Cc1ccc(OCCCN2CCN(CCO)CC2)cc1)NC(=O)c1ccccc1` (racemic) [CR 609, O-[3-(N"-hydroxyethyl-piperazine)-N'-propyl]-N-benzoyl-DL-tyrosil-di-n-propylamide], the LD50 in data set [1] worked out at 139 mg/kg. Further, the ED50 in data set [2] amounted to 50.5 mg/kg. Also, in data set [3], the “Antisp. activity in vitro on the ileum” value is given as 0.68.
In turn, `CN(C)CCOc1ccc(CC(NC(=O)c2ccccc2)C(=O)N2CCOCC2)cc1` (racemic) [CR 611, O-(2-dimetylamino-ethyl)-N-benzoyl-DL-tyrosil-morpholilamide] showed an LD50 in data set [1] of 108 mg/kg. In data set [2], the 50% effective dose (ED50) came to 59.8 mg/kg.
For `CCN(CC)CCOc1ccc(CC(NC(=O)c2ccccc2)C(=O)N2CCCC2)cc1` (racemic) [CR 614, O-(2-diethylamino-ethyl)-N-benzoyl-DL-tyrosil-pyrrolidilamide] the same measures were 58.7 mg/kg and 53.2 mg/kg.
`CN(C)CCOc1ccc(CC(NC(=O)c2ccccc2)C(=O)NCc2ccccc2)cc1` (racemic) [CR 616, O-(2-dimethylamino-ethyl)-N-benzoyl-DL-tyrosil-benzylamide] had an LD50 in data set [1] of 73.6 mg/kg. The “Antisp. activity in transit test: ED50” value in data set [2] is “inactive”. The “Antisp. activity in vitro on the ileum” value in data set [3] is recorded as 0.82.
The molecule `CCCN(CCC)C(=O)C(Cc1ccc(OCCCN2CCN(Cc3ccccc3)CC2)cc1)NC(=O)c1ccccc1` (racemic) [CR 619, O-[3-(N"-benzylpiperazine)-N'-propyl]-N-benzoyl-DL-tyrosil-di-n-propylamide] came in with an LD50 in data set [1] of 110 mg/kg. Moreover, the ED50 in data set [2] came out at 67.8 mg/kg.
In turn, `CCCN(CCC)C(=O)C(Cc1ccc(OCCN(C)C)cc1)NC(=O)c1ccc([N+](=O)[O-])cc1` (racemic) [CR 620, O-(2-dimethylamino-ethyl)-N-(p-nitro-benzoyl)DL-tyrosil-di-n-propylamide] returned an LD50 in data set [1] of 117 mg/kg. Moreover, in data set [2], the “Antisp. activity in transit test: ED50” value is “inactive”. The “Antisp. activity in vitro on the ileum” value in data set [3] was determined as 0.36.
For `CCCN(CCC)C(=O)C(Cc1ccc(OCCN(C(C)C)C(C)C)cc1)NC(=O)c1ccccc1` (racemic) [CR 624, O-(2-di-isopropylamino-ethyl)-N-benzoyl-DL-tyrosil-di-n-propylamide] the same measures were 24.4 mg/kg, “inactive” and 1.12.
In data set [1], `CCCN(CCC)C(=O)C(Cc1ccc(OCCN2CCCC2)cc1)NC(=O)c1ccccc1` (racemic) [CR 625, O-(2-pyrrolidil-N'-ethyl)-N-benzoyl-DL-tyrosil-di-n-propylamide] came in with an LD50 of 32.6 mg/kg. Besides, the 50% effective dose (ED50) in data set [2] turned out to be 21.1 mg/kg. For the same molecule, the “Antisp. activity in vitro on the ileum” value in data set [3] is given as 0.52.
Regarding `CCCN(CCC)C(=O)C(Cc1ccc(OCCN2CCCCC2)cc1)NC(=O)c1ccccc1` (racemic) [CR 630, O-(2-piperidil -N'-ethyl)-N-benzoyl-DL-tyrosil-di-n-propylamide], in data set [1], the median lethal dose (LD50) was 36.1 mg/kg. Besides, the ED50 in data set [2] is 40.1 mg/kg.
Consider `CCCN(CCC)C(=O)C(Cc1ccc(OCCN(CC)CC)cc1)NC(=O)c1ccc(Br)cc1` (racemic) [CR 631, O-(2-diethylamino-ethyl)-N-(p-bromobenzoyl)-DL-tyrosil-din-propylamide], for which, in data set [1], the LD50 is 60.2 mg/kg. Also, the 50% effective dose (ED50) in data set [2] is 40.4 mg/kg. For the same molecule, the “Antisp. activity in vitro on the ileum” value in data set [3] was 1.22.
For `CCCN(CCC)C(=O)C(Cc1ccc(OCCN(CC)CC)cc1)NC(=O)c1ccc(C)c(C)c1` (racemic) [CR 632, O-(2-diethylamino-ethyl)-N-(3,4-di-methyl-benzoyl)-DL-tyrosil-di-n-propylamide] the same measures were 38.1 mg/kg, 26 mg/kg and 0.40.
For `CCCN(CCC)C(=O)C(Cc1ccc(OCCN(CC)CC)cc1)NC(=O)c1ccc(C(F)(F)F)cc1` (racemic) [CR 635, O-(2-diethylamino-ethyl)-N-[p-(trifluoro-methyl)-benzoyl]-DL-tyrosil-di-n-p ropylamide] the same measures were 38.7 mg/kg, 25.6 mg/kg and 0.95.
For `CCCN(CCC)C(=O)C(Cc1ccc(OCCN(CC)CC)cc1)NC(=O)c1ccc(OC)cc1` (racemic) [CR 644, O-(2-diethylamino-ethyl)-N-(p-metoxy-benzoyl)-DL-tyrosil-di-n-propylamide] the same measures were 56.4 mg/kg, 20.2 mg/kg and 0.45.
Take `CCCCNC(=O)C(Cc1ccc(OCCN2CCCC2)cc1)NC(=O)c1ccccc1` (racemic) [CR 648, O-(2-pyrrolidil-N'-ethyl)-N-benzoyl-DL-tyrosil-n-butylamide]: the LD50 in data set [1] turned out to be 35.6 mg/kg. The 50% effective dose (ED50) in data set [2] turned out to be 10.7 mg/kg. Further, in data set [3], the “Antisp. activity in vitro on the ileum” value came to 0.16.
The molecule `CCCN(CCC)C(=O)C(Cc1ccc(OC(C)C(C)CN(CC)CC)cc1)NC(=O)c1ccccc1` (racemic) [CR 700, O-(3-diethylamino-1,2-dimethyl-propyl)-N-benzoyl-DL-tyrosil-di-n-propylamide] came in with a 50% lethal dose (LD50) in data set [1] of 19.3 mg/kg. The ED50 in data set [2] turned out to be 20.4 mg/kg.
As for `CCCCNC(=O)C(Cc1ccc(OCCCN2CCN(C)CC2)cc1)NC(=O)c1ccccc1` (racemic) [CR 702, O-[3-(N"-methyl-piperazine)-N'-propyl]-N-benzoyl-DL-tyrosil-n-butylamide], the 50% lethal dose (LD50) in data set [1] was found to be 81.4 mg/kg. Moreover, the median effective dose (ED50) in data set [2] amounted to 62.5 mg/kg. In addition, in data set [3], the “Antisp. activity in vitro on the ileum” value came to 0.11.
For `CCCCNC(=O)C(Cc1ccc(OCCCN2CCN(C)CC2)cc1)NC(=O)c1ccc(Cl)cc1` (racemic) [CR 705, O-[3-(N"-methyl-piperazine)-N'-propyl]-N-(p-chloro-benzoyl)-DL-tyrosil-n-butylamide] the same measures were 80 mg/kg, 31 mg/kg and 1.57.
`CCNC(=O)C(Cc1ccc(OCCN(C(C)C)C(C)C)cc1)NC(=O)c1ccccc1` (racemic) [CR 711, O-(2-diisopropylamino-ethyl)-N-benzoyl-DL-tyrosil-ethylamide]: the LD50 in data set [1] was determined as 82 mg/kg. In addition, the “Antisp. activity in transit test: ED50” value in data set [2] is “inactive”. In addition, in data set [3], the “Antisp. activity in vitro on the ileum” value worked out at 0.42.
For `CCNC(=O)C(Cc1ccc(OCCCN2CCN(C)CC2)cc1)NC(=O)c1ccc(Cl)cc1` (racemic) [CR 714, O-[3-(N"-methyl-piperazine)-N'-propyl]-N-(p-chloro-benzoyl)-DL-tyrosil-ethylamide] the same measures were 111 mg/kg, “inactive” and 0.42.
For `CCCN(CCC)C(=O)C(Cc1ccc(OCCN(C(C)C)C(C)C)cc1)NC(=O)c1ccc(Cl)cc1` (racemic) [CR 727, O-(2'-di-isopropylamino-ethyl)-N-(p-chloro-benzoyl)-DL-tyrosil-di-n-propylamide], the LD50 in data set [1] is 26.3 mg/kg. Moreover, the ED50 in data set [2] was 24.9 mg/kg. The “Antisp. activity in vitro on the ileum” value in data set [3] stood at 1.52.
Turning to `CCCCNC(=O)C(Cc1ccc(OCCN(CC)CC)cc1)NC(=O)c1ccc(Cl)cc1` (racemic) [CR 729, O-(2-diethylamino-ethyl)-N-(p-chloro-benzoyl)-DL-tyrosil-n-butylamide], in data set [1], the LD50 was 38.6 mg/kg. In addition, the ED50 in data set [2] worked out at 23 mg/kg. Moreover, the “Antisp. activity in vitro on the ileum” value in data set [3] is listed as 2.45.
In the case of `CCCN(CCC)C(=O)C(Cc1ccc(OCCCCN(CC)CC)cc1)NC(=O)c1ccccc1` (racemic) [CR 829, O-(4-diethylamino-butyl)-N-benzoyl-DL-tyrosil-di-n-propylamide], the 50% lethal dose (LD50) in data set [1] worked out at 20.1 mg/kg. Besides, the ED50 in data set [2] is 15.2 mg/kg.

The values above are taken from US4004008A, “O-Tertiary amino-alkyl-N-benzoyl tyrosil amides” (priority 1974, dated 1977).
